Results: PubChem BioAssay (NCI)
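Dose response: 5 concentrations. Exposure: 48 h. Format: 96-well plates. Endpoint: linear interpolation; highest concentration if not reached. The concentration for full growth arrest is given as TGI.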

Columns and labels:
Test in all cases: growth of human tumour cells (NCI), 48 h
[1] = test system: 786-0 renal
[2] = test system: A549 NSCLC
[3] = test system: ACHN renal
[4] = test system: CAKI-1 renal
[5] = test system: CCRF-CEM leukemia
[6] = test system: COLO 205 colon
[7] = test system: DLD-1 colon
[8] = test system: DMS 114 small cell lung
[9] = test system: DMS 273 small cell lung
[10] = test system: EKVX NSCLC
[11] = test system: HCC-2998 colon
[12] = test system: HCT-116 colon
[13] = test system: HCT-15 colon
[14] = test system: HL-60(TB) leukemia
[15] = test system: HOP-18 NSCLC
[16] = test system: HOP-62 NSCLC
[17] = test system: HOP-92 NSCLC
[18] = test system: HT29 colon
[19] = test system: IGROV1 ovarian
[20] = test system: K-562 leukemia
[21] = test system: KM12 colon
[22] = test system: KM20L2 colon
[23] = test system: LOX IMVI melanoma
[24] = test system: LXFL 529 NSCLC
[25] = test system: M14 melanoma
[26] = test system: M19-MEL melanoma
[27] = test system: MALME-3M melanoma
[28] = test system: MOLT-4 leukemia
[29] = test system: NCI-H226 lung
[30] = test system: NCI-H460 lung
[31] = test system: OVCAR-3 ovarian
[32] = test system: OVCAR-4 ovarian
[33] = test system: OVCAR-5 ovarian
[34] = test system: OVCAR-8 ovarian
[35] = test system: RPMI-8226 leukemia
[36] = test system: RXF 393 renal
[37] = test system: SF-295 CNS
[38] = test system: SK-MEL-2 melanoma
[39] = test system: SK-MEL-28 melanoma
[40] = test system: SK-MEL-5 melanoma
[41] = test system: SK-OV-3 ovarian
[42] = test system: SN12C renal
[43] = test system: SNB-19 CNS
[44] = test system: SNB-75 CNS
[45] = test system: SNB-78 CNS
[46] = test system: SW-620 colon
[47] = test system: TK-10 renal
[48] = test system: U251 CNS
[49] = test system: UACC-257 melanoma
[50] = test system: UACC-62 melanoma
[51] = test system: UO-31 renal
[52] = test system: XF 498 CNS
[53] = test system: A498 renal
[54] = test system: BT-549 breast
[55] = test system: DU-145 prostate
[56] = test system: HS 578T breast
[57] = test system: MCF7 breast
[58] = test system: MDA-MB-231 breast
[59] = test system: MDA-MB-435
[60] = test system: MDA-N
[61] = test system: NCI-H23 lung
[62] = test system: NCI-H522 lung
[63] = test system: NCI/ADR-RES ovarian
[64] = test system: PC-3 prostate
[65] = test system: SF-268 CNS
[66] = test system: SF-539 CNS
[67] = test system: SR leukemia
[68] = test system: T-47D breast

CN[C@H](C)[C@@H](OC)c1ccccc1
TGI [1]: > 100 µM | TGI [2]: > 100 µM | TGI [3]: > 100 µM | TGI [4]: > 100 µM | TGI [5]: > 100 µM | TGI [6]: > 100 µM | TGI [7]: > 100 µM | TGI [8]: > 100 µM | TGI [9]: > 100 µM | TGI [10]: > 100 µM | TGI [11]: > 100 µM | TGI [12]: > 100 µM | TGI [13]: > 100 µM | TGI [14]: > 100 µM | TGI [15]: > 100 µM | TGI [16]: > 100 µM | TGI [17]: > 100 µM | TGI [18]: > 100 µM | TGI [19]: > 100 µM | TGI [20]: > 100 µM | TGI [21]: > 100 µM | TGI [22]: > 100 µM | TGI [23]: > 100 µM | TGI [24]: > 100 µM | TGI [25]: > 100 µM | TGI [26]: > 100 µM | TGI [27]: > 100 µM | TGI [28]: > 100 µM | TGI [29]: > 100 µM | TGI [30]: > 100 µM | TGI [31]: > 100 µM | TGI [32]: > 100 µM | TGI [33]: > 100 µM | TGI [34]: > 100 µM | TGI [35]: > 100 µM | TGI [36]: > 100 µM | TGI [37]: > 100 µM | TGI [38]: > 100 µM | TGI [39]: > 100 µM | TGI [40]: > 100 µM | TGI [41]: > 100 µM | TGI [42]: > 100 µM | TGI [43]: > 100 µM | TGI [44]: > 100 µM | TGI [45]: > 100 µM | TGI [46]: > 100 µM | TGI [47]: > 100 µM | TGI [48]: > 100 µM | TGI [49]: > 100 µM | TGI [50]: > 100 µM | TGI [51]: > 100 µM | TGI [52]: > 100 µM

S=C(S)N1CCOCC1
TGI [1]: > 41.4 µM | TGI [53]: > 54.4 µM | TGI [2]: > 100 µM | TGI [3]: > 100 µM | TGI [54]: > 100 µM | TGI [4]: > 34 µM | TGI [5]: 4.42 µM | TGI [6]: 5.98 µM | TGI [7]: 5.22 µM | TGI [8]: 0.904 µM | TGI [9]: 21.1 µM | TGI [55]: > 100 µM | TGI [10]: > 100 µM | TGI [11]: > 31.1 µM | TGI [12]: 24.9 µM | TGI [13]: > 60.1 µM | TGI [14]: 14.3 µM | TGI [15]: > 100 µM | TGI [16]: > 100 µM | TGI [17]: > 100 µM | TGI [56]: > 100 µM | TGI [18]: 17.1 µM | TGI [19]: > 100 µM | TGI [20]: 24.9 µM | TGI [21]: > 100 µM | TGI [22]: > 53.2 µM | TGI [23]: > 78.3 µM | TGI [24]: > 100 µM | TGI [25]: 98.4 µM | TGI [26]: 12.4 µM | TGI [27]: > 64.2 µM | TGI [57]: > 100 µM | TGI [58]: > 100 µM | TGI [59]: > 100 µM | TGI [60]: > 100 µM | TGI [28]: 9.89 µM | TGI [29]: > 100 µM | TGI [61]: > 34 µM | TGI [30]: > 29.6 µM | TGI [62]: 3.98 µM | TGI [63]: > 100 µM | TGI [31]: 15.8 µM | TGI [32]: > 34.5 µM | TGI [33]: > 100 µM | TGI [34]: > 100 µM | TGI [64]: > 100 µM | TGI [35]: 42.6 µM | TGI [36]: 12.7 µM | TGI [65]: > 100 µM | TGI [37]: > 100 µM | TGI [66]: > 83.6 µM | TGI [38]: > 100 µM | TGI [39]: 82.2 µM | TGI [40]: > 63.9 µM | TGI [41]: > 100 µM | TGI [42]: > 100 µM | TGI [43]: > 100 µM | TGI [44]: > 29.8 µM | TGI [45]: > 100 µM | TGI [67]: 14.8 µM | TGI [46]: 16.5 µM | TGI [68]: > 100 µM | TGI [47]: > 100 µM | TGI [48]: 25.8 µM | TGI [49]: > 100 µM | TGI [50]: 15 µM | TGI [51]: > 100 µM | TGI [52]: 16 µM
